Source: publication PMC6133997, “Glutamic acid is a carrier for hydrazine during the biosyntheses of fosfazinomycin and kinamycin” (Nature Communications, 2018)

Legend:
FzmA = settings: 21 µM enzyme, 5 mM substrate, 5 mM arginine, 6 mM MgCl2, 6 mM ATP, 50 mM NaH2PO4 pH 7.7, 21 h; hydrolysis to glutamic acid
KinL = target: T1, KinL (Streptomyces murayamaensis, UniProt A0A385LSP3); assay: LC-HRMS of culture supernatant of E. coli expressing KinL; assay type: cell-based; settings: 1 mM acetylhydrazine, 1 mM glutamic acid, 15 °C overnight; empty-vector control
T1 construct: pET28a in live E. coli BL21(DE3), not purified
T1 sequence (A0A385LSP3 1-500): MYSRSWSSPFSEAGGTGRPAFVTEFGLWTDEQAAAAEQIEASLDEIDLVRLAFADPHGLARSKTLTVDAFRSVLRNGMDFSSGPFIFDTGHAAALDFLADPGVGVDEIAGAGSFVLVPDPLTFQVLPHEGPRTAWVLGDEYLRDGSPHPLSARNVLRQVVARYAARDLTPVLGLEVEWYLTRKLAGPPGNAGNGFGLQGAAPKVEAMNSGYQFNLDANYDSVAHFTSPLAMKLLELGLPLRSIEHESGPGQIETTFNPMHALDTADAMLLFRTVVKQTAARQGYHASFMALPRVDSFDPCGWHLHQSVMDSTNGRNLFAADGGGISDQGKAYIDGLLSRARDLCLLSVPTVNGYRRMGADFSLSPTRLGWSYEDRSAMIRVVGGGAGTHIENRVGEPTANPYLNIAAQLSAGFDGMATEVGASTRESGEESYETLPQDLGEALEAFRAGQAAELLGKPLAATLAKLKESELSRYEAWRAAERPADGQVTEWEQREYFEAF

FzmA, sequence (U5YQM4 entry or part of it): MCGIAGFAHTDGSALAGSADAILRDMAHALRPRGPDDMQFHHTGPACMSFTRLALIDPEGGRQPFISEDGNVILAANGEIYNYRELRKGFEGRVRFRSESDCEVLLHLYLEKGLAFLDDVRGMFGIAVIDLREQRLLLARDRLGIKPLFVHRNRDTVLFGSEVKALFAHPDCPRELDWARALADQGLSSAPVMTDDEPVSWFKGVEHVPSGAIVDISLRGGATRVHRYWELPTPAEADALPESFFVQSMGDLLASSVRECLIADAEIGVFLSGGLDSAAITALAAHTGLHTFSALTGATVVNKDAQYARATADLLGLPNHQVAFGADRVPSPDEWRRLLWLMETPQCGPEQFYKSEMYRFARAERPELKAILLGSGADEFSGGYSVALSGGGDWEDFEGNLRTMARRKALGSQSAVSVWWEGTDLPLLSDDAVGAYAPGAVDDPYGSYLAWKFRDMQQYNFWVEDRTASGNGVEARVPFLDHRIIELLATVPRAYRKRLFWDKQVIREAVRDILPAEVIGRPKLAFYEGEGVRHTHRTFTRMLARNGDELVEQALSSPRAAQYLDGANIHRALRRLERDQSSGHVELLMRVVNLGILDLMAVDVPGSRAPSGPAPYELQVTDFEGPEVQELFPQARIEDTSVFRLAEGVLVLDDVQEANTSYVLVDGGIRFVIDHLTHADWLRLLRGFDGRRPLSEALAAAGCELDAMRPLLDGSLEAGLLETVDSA

Compound	LC-MS after Fmoc-Cl derivatization (FzmA)	LC-HRMS of culture supernatant of E. coli expressing KinL (KinL)
NNC(=O)CC[C@H](N)C(=O)O [compound 6, glutamylhydrazine]	FzmA clearly has the ability to liberate hydrazine from glutamylhydrazine	–
CC(=O)NN [acetylhydrazine]	–	observed in culture supernatants only when KinL was expressed and acetylhydrazine was present
